Results taken from US20240368092A1, “2,4-Dihydro-3H-1,2,4-Triazol-3-One P2X7 Antagonists” (Breye Therapeutics ApS, priority 2021, published 2024).

What was measured:
Format in all cases: cell-based
[1] = biological target: T1, human P2X7 channel (Homo sapiens, UniProt Q99572); assay: human P2X7 channel assay by automated patch-clamp (QPatch 16X); settings: HEK-293 cells expressing P2X7; current evoked by 100 microM BzATP; whole-cell, held at -80 mV; read-out: human Q-Patch (activity range)
T1 construct: expressed in transfected cells; host or cells: HEK-293
T1 sequence (Q99572 1-595): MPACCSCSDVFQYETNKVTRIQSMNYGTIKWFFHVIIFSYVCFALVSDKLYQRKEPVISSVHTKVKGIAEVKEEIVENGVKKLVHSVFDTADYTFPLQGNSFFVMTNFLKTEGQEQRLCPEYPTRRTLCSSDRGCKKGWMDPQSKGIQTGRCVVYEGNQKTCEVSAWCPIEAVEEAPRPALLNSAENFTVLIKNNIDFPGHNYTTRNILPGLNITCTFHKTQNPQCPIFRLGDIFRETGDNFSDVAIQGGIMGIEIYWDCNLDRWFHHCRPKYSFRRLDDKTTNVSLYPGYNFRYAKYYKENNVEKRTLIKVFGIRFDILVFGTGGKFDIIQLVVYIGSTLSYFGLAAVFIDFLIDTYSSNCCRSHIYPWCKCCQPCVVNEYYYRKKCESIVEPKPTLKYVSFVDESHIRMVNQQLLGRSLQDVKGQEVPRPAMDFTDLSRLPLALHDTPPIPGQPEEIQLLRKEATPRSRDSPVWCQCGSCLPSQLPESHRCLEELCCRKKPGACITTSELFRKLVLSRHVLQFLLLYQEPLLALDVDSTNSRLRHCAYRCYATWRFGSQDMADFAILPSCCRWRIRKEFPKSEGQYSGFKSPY
Protocol: In order to directly monitor the block of P2X7 channel, an electrophysiological assay was developed and implemented on the QPatchl6X automated electrophysiology instrument.
HEK-293 cells expressing the P2X7 channels were cultured in modified EMEM.
72 hours before experiment, 5 million cells were seeded onto T225 flasks. Just before the experiment cells were washed twice, detached from the flask with trypsin-EDTA, re-suspended in the suspension solution and placed on the QPatch 16x.
The compounds (20 mM in a 100% DMSO) stored at −20° C. were prepared the day of the experiment (a first dilution 1:20 in 100% DMSO to prepare a 1 mM stock solution, then a 1 microM solution in external solution+a serial dilution 1:10).
The standard whole-cell voltage clamp experiments were performed at room temperature. From these experiments the multihole technology was used and the data were sampled at 2 KHz.
The intracellular solution contained (mM) 135 CsF, 10 NaCl, 1 EGTA, 10 HEPES, (pH 7.2 with CsOH) whereas the extracellular contained (mM) 145 NaCl, 4 KCl, 0.5 MgCl2, 1 CaCl2, 10 HEPES, 10 Glc (pH 7.4 with NaOH).
After establishment of the seal and the passage in the whole cell configuration, the cells were held at −80 mV. The P2XR7 current was evoked by applying 100 microM of BzATP alone (4 times) and then in the presence increasing concentrations of the compound under investigation (1, 10, 100 and 1000 nM).
The pre-incubation periods 5 to 8 contain increasing concentrations of the compound of interest (1, 10, 100 and 1000 nM), as illustrated in FIGURE (application protocol).
The maximal inward current evoked by BzATP in absence or presence of increasing concentrations of the compounds under investigation was measured and normalized. The potential […] effect was measured as % of control and as IC50 determined fitting the dose-response curves data with the following equation:
Here are reported the potency ranges as A, B, C and D, where A is <10 nM; B is 10 nM-100 nM, C is 0.1-1 μM, D is 1-10 μM.

[2] = biological target: T2, humanP2X7 (Homo sapiens, UniProt Q99572); assay: P2X7 channel calcium-influx assay (Fluo-8, FLIPR TETRA), human P2X7; settings: HEK-293 cells stably transfected with P2X7; Bz-ATP at EC80; low divalent cation buffer; read-out: humanP2X7 (activity range)
T2 construct: expressed in transfected cells; host or cells: HEK-293
T2 sequence (Q99572 1-595): T1 sequence (Q99572 1-595)
Protocol: (§1) Extracellular binding of Bz-ATP to P2X7 receptor opens the channel and allows Ca^2+ influx into the cells. This Ca^2+ entry was measured in HEK-293 cells stably transfected with P2X7 receptor using Screen Quest™ Fluo-8 No Wash Calcium Assay Kit (AAt Bioquest®, cat. 36316). Once inside the cell, the lipophilic blocking groups of Fluo-8 are cleaved by non-specific cell esterases, resulting in a negatively-charged fluorescent dye that stays inside cells. Its fluorescence increases upon binding to calcium. When HEK-293/P2X7 cells are stimulated with Bz-ATP, Ca^2+ enters the cells and the fluorescence of Fluo-8 NW increases. The dye has an absorption spectrum compatible with excitation at 488 nm by argon laser sources and its emission wavelength is in the range of 515-575 nm.
(§2) HEK-293 cells stably transfected with P2X7 receptor were seeded overnight in growth medium at 10,000 to 20,000 cells/well in 384-well plate. 24 hours later, the medium was removed, and the cells were pre-loaded at RT for 1 hour with 20 μL/w of Fluo-8 NW. Then 10 μL/w of test compounds and reference antagonist A438079 at 3×-concentration were injected with the FLIPRTETRA and the kinetic response over a period of five minutes was monitored. A second injection of 15 μL/w of 3× reference activator (Bz-ATP at EC80) was performed with the FLIPR TETRA and the signal of the emitted fluorescence was recorded for additional three minutes. All the experiment was carried out in a Low Divalent Cation Assay Buffer (0.3 mM Ca^2+ and 0 mM Mg^2+). The effect of the test compounds was measured as percent inhibition vs the reference antagonist and IC50 values were calculated accordingly. Here are reported the potency ranges as A, B, C and D, where A is <200 nM; B is 200 nM-1 μM, C is 1-10 μM, D is 10-30 μM.

[3] = biological target: T3, mouseP2X7 (Mus musculus, UniProt Q9Z1M0); assay: P2X7 channel calcium-influx assay (Fluo-8, FLIPR TETRA), mouse P2X7; settings: HEK-293 cells stably transfected with P2X7; Bz-ATP at EC80; low divalent cation buffer; read-out: mouseP2X7 (activity range)
T3 construct: expressed in transfected cells; host or cells: HEK-293
T3 sequence (Q9Z1M0 1-595): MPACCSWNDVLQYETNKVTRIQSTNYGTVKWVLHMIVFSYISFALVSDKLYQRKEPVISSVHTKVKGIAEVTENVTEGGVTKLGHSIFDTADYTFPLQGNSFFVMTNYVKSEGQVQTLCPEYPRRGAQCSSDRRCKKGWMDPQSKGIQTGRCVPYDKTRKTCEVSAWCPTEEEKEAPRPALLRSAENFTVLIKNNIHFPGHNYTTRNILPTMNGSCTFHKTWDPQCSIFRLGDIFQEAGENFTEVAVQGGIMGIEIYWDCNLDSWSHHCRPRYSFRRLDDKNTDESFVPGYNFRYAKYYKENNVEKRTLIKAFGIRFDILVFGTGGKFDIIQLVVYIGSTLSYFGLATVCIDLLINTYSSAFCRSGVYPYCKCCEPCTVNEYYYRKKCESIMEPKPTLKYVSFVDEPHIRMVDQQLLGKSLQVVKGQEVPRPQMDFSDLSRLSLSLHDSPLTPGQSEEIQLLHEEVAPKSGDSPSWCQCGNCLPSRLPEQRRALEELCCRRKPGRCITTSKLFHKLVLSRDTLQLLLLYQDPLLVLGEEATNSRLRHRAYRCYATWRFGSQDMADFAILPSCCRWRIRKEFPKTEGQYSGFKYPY
Protocol: as §1, §2

[4] = biological target: T4, ratP2X7 (Rattus norvegicus, UniProt Q64663); assay: P2X7 channel calcium-influx assay (Fluo-8, FLIPR TETRA), rat P2X7; settings: HEK-293 cells stably transfected with P2X7; Bz-ATP at EC80; low divalent cation buffer; read-out: ratP2X7 (activity range)
T4 construct: expressed in transfected cells; host or cells: HEK-293
T4 sequence (Q64663 1-595): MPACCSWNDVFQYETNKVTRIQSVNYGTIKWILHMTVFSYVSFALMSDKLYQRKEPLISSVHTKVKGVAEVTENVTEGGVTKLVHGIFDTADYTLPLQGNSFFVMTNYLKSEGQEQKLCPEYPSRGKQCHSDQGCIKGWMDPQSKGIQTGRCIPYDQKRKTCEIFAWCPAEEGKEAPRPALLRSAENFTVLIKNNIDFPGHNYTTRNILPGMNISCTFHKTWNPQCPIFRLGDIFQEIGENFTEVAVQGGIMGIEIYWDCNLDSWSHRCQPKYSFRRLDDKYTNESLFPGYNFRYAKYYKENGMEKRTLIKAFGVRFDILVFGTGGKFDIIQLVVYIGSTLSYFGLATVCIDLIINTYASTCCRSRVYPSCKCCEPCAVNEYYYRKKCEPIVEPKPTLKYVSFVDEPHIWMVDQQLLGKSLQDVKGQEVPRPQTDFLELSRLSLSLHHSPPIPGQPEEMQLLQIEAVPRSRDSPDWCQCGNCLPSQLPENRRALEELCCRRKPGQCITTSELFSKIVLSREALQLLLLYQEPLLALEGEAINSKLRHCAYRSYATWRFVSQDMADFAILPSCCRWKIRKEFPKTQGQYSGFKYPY
Protocol: as §1, §2

Cn1nc(Cc2c(F)cccc2Cl)n(CC2CC3C(C2)C3(F)F)c1=O (stereo not drawn) [Example 5, 5-(2-chloro-6-fluorobenzyl)-4-((6,6-difluorobicyclo[3.1.0]hexan-3-yl)methyl)-2-methyl-2,4-dihydro-3H-1,2,4-triazol-3-one]
IC50 [1]: 10 to 100 nM | IC50 [2]: 200 to 1000 nM | IC50 [3]: 1000 to 10000 nM | IC50 [4]: < 200 nM

Cn1nc(Cc2ccc(F)cc2Cl)n(CC2CCCCCC2)c1=O [Example 11, 5-(2-chloro-4-fluorobenzyl)-4-(cycloheptylmethyl)-2-methyl-2,4-dihydro-3H-1,2,4-triazol-3-one]
IC50 [1]: 10 to 100 nM | IC50 [2]: < 200 nM | IC50 [3]: 200 to 1000 nM | IC50 [4]: < 200 nM

Cn1nc(Cc2c(F)cccc2Cl)n(CC2CCCCCC2)c1=O [Example 12, 5-(2-chloro-6-fluorobenzyl)-4-(cycloheptylmethyl)-2-methyl-2,4-dihydro-3H-1,2,4-triazol-3-one]
IC50 [1]: < 10 nM | IC50 [2]: < 200 nM | IC50 [3]: < 200 nM | IC50 [4]: < 200 nM

Cn1nc(CC2CCCCC2)n(Cc2ccnc(C(F)(F)F)c2)c1=O [Example 13, 5-(cyclohexylmethyl)-2-methyl-4-((2-(trifluoromethyl)pyridin-4-yl)methyl)-2,4-dihydro-3H-1,2,4-triazol-3-one]
IC50 [1]: 1000 to 10000 nM | IC50 [2]: 10000 to 30000 nM | IC50 [3]: 10000 to 30000 nM | IC50 [4]: 10000 to 30000 nM

Cn1nc(Cc2c(F)cccc2Cl)n(CC2CCC3(CC2)CC3)c1=O [Example 14, 5-(2-chloro-6-fluorobenzyl)-2-methyl-4-(spiro[2.5]octan-6-ylmethyl)-2,4-dihydro-3H-1,2,4-triazol-3-one]
IC50 [1]: < 10 nM | IC50 [2]: < 200 nM | IC50 [3]: < 200 nM | IC50 [4]: < 200 nM

Cn1nc(Cc2c(F)cccc2Cl)n(CCC2CCC(F)(F)CC2)c1=O [Example 15, 5-(2-chloro-6-fluorobenzyl)-4-(2-(4,4-difluorocyclohexyl)ethyl)-2-methyl-2,4-dihydro-3H-1,2,4-triazol-3-one]
IC50 [1]: 10 to 100 nM | IC50 [2]: < 200 nM | IC50 [3]: 1000 to 10000 nM | IC50 [4]: < 200 nM

Cn1nc(Cc2c(F)cccc2Cl)n(CCC2CCC(C)(C)CC2)c1=O [Example 16, 5-(2-chloro-6-fluorobenzyl)-4-(2-(4,4-dimethylcyclohexyl)ethyl)-2-methyl-2,4-dihydro-3H-1,2,4-triazol-3-one]
IC50 [1]: 10 to 100 nM | IC50 [2]: 200 to 1000 nM | IC50 [3]: 1000 to 10000 nM | IC50 [4]: 200 to 1000 nM

Cn1nc(Cc2ccccc2C(F)(F)F)n(CC2CCCCC2)c1=O [Example 17, 4-(cyclohexylmethyl)-2-methyl-5-(2-(trifluoromethyl)benzyl)-2,4-dihydro-3H-1,2,4-triazol-3-one]
IC50 [1]: 100 to 1000 nM | IC50 [2]: 200 to 1000 nM | IC50 [3]: 1000 to 10000 nM | IC50 [4]: < 200 nM

Cn1nc(Cc2ccccc2C(F)(F)F)n(CC2CCC(F)(F)CC2)c1=O [Example 18, 4-((4,4-difluorocyclohexyl)methyl)-2-methyl-5-(2-(trifluoromethyl)benzyl)-2,4-dihydro-3H-1,2,4-triazol-3-one]
IC50 [1]: 10 to 100 nM | IC50 [2]: < 200 nM | IC50 [3]: 1000 to 10000 nM | IC50 [4]: < 200 nM

Cn1nc(Cc2ccccc2C(F)(F)F)n(CC2CCC(F)(F)C2)c1=O (stereo not drawn) [Example 19, 4-((3,3-difluorocyclopentyl)methyl)-2-methyl-5-(2-(trifluoromethyl)benzyl)-2,4-dihydro-3H-1,2,4-triazol-3-one]
IC50 [1]: 100 to 1000 nM | IC50 [2]: 1000 to 10000 nM | IC50 [3]: 10000 to 30000 nM | IC50 [4]: 200 to 1000 nM

Cn1nc(Cc2c(F)cccc2Cl)n(CC2CCCO2)c1=O (stereo not drawn) [Example 20, 5-(2-chloro-6-fluorobenzyl)-2-methyl-4-((tetrahydrofuran-2-yl)methyl)-2,4-dihydro-3H-1,2,4-triazol-3-one]
IC50 [1]: 1000 to 10000 nM | IC50 [2]: 10000 to 30000 nM | IC50 [3]: 10000 to 30000 nM | IC50 [4]: 10000 to 30000 nM

CN1CCCCC1Cn1c(Cc2c(F)cccc2Cl)nn(C)c1=O (stereo not drawn) [Example 21, 5-(2-chloro-6-fluorobenzyl)-2-methyl-4-((1-methylpiperidin-2-yl)methyl)-2,4-dihydro-3H-1,2,4-triazol-3-one]
IC50 [1]: 1000 to 10000 nM | IC50 [2]: 1000 to 10000 nM | IC50 [3]: 10000 to 30000 nM | IC50 [4]: 1000 to 10000 nM
